Tests used:
[1] = Pharmacokinetic evaluation in ICR mice; type: in vivo; settings: male, mouse, plasma, PO 10 mg/kg
Excerpt: ICR normal mice were used as test animals, and LC/MS/MS was used to determine the drug concentrations at different moments in plasma of ICR mice by intragastric administration. The pharmacokinetic behavior of the compounds of the present invention in ICR mice was studied to evaluate the pharmacokinetic characteristics of the above compounds.
Compound 4, Compound 26 and Compound 32.
ICR mice, male, 27.8-38 g, were purchased from Zhejiang Vital River Laboratory Animal Technology Co., Ltd.
An appropriate amount of the compound was weighed, and DMA:30% Solutol HS-15:Saline=5:5:90 (v/v/v) was used as the solvent to prepare a fully dissolved solution, and then administered to obtain a 1 mg/mL colorless solution.
The ICR mice in the intragastric group of each compound to be tested (nine mice in each group) were fasted overnight followed by intragastric administration (administration dosage was 10 mg/kg and the administration volume was 10 mL/kg), and ate 4 hours after administration.
0.1 mL of blood was collected via orbit before administration and 0.25 hour, 0.5 hour, 1 hour, 2 hours, 4 hours, 8 hours, 12 hours, and 24 hours after administration, and placed in EDTA-K2 anticoagulant tubes. The collected blood samples were placed on ice, and plasma was separated by centrifugation (centrifugation condition: 1500 g, 10 minutes). The collected plasma samples were stored at −40˜−20° C. before analysis.
LC-MS/MS was used to determine the content of the compound to be tested in mouse plasma after intragastric administration.

[2] = Pharmacokinetic evaluation in SD rats; type: in vivo; settings: male, rat, plasma; for AUC(0-t): read-out: Area under curve AUC0-t; for half-life: read-out: Half-life T1/2 (converted)
Procedure: SD rats were used as the test animals, and LC/MS/MS was used to determine the drug concentrations at different moments in plasma after compound 11 of the present invention was administered to the rats through intravenous injection or intragastric administration. The pharmacokinetic characteristics of compound 11 of the present invention in SD rats were studied.
SD rats, male, 195-235 g, 6-8 weeks old, were purchased from Vital River Laboratory Animal Technology Co., Ltd.
Intravenous injection group: an appropriate amount of the compound to be tested was weighed, and an appropriate amount of DMA:30% Solutol HS-15:Saline=5:5:90 (v/v/v) was added respectively, vortexed, and a solution with a final concentration of 0.2 mg/mL was prepared.
Intragastric administration group: an appropriate amount of the compound to be tested was weighed, and an appropriate amount of DMA:30% Solutol HS-15:Saline=5:5:90 (v/v/v) was added, vortexed, and a solution with a final concentration of 1 mg/mL was prepared.
The SD rats were divided into intravenous injection group (3 rats/group) and intragastric administration group (3 rats/group) according to the compound to be tested.
Intravenous injection group: rats were fasted overnight and then administered by intravenous injection (administration dosage was 1 mg/kg, and administration volume was 5 mL/kg), and ate 4 hours after administration.
Intragastric administration group: rats were fasted overnight followed by intragastric administration (administration dosage was 10 mg/kg, and administration volume was 10 mL/kg), and ate 4 hours after administration.
(§1) Intravenous injection group: about 150 μL of blood was collected through jugular vein into EDTA-K2 anticoagulant tubes 0.083 hour, 0.25 hour, 0.5 hour, 1 hour, 2 hours, 4 hours, 8 hours and 24 hours after administration. The collected blood sample was placed on ice, and plasma was separated by centrifugation (centrifugation condition: 1500 g, 10 minutes). The collected plasma sample was stored at −40˜−20° C. before analysis.
as §1, with “Intragastric administration group:” for “Intravenous injection group:”, “about 100” for “about 150”, “tubes” for “tubes 0.083 hour,”
LC-MS/MS was used to determine the content of the compound to be tested in rat plasma after intravenous injection and intragastric administration of the compound.

Structure (SMILES)	AUC(0-t) ([1]; read-out: Area under curve AUC0-t) [ng·h/mL]	half-life ([1]; read-out: Half-life T1/2 (converted)) [min]	Cmax ([1]; read-out: Plasma concentration Cmax) [ng/mL]	bioavailability ([2]; Oral 10 mg/kg vs injection 1 mg/kg, read-out: Bioavailability F) [%]	AUC(0-t) ([2]; Oral 10 mg/kg) [ng·h/mL]	half-life ([2]; Oral 10 mg/kg) [min]	Cmax ([2]; Oral 10 mg/kg, read-out: Plasma concentration Cmax) [ng/mL]	AUC(0-t) ([2]; iv, injection 1 mg/kg) [ng·h/mL]	half-life ([2]; iv, injection 1 mg/kg) [min]
COc1cc2nc(C)nc(N[C@H](C)c3cccc(C#N)c3C)c2cc1N1CCC2(CCOCC2)CC1 [Compound 4, (R)-3-(1-((7-methoxy-2-methyl-6-(3-oxa-9-azaspiro[5.5]undecan-9-yl)quinazolin-4-yl)amino)ethyl)-2-methylbenzonitrile]	5820	51	2310						
COc1cc2nc(C)nc(N[C@H](C)c3cccc(C#N)c3C)c2cc1N1CCC(C)(O)CC1 [Compound 11, (R)-3-(1-((6-(4-hydroxy-4-methylpiperidin-1-yl)-7-methoxy-2-methylquinazolin-4-yl)amino)ethyl)-2-methylbenzonitrile]				79.4	4860 ± 1670	145 ± 127	1150 ± 349	612 ± 126	43.8 ± 19.2

From patent US20240382475A1, “Quinazoline Derivative, Or Preparation Method Therefor And Use Thereof” (Zhejiang Hisun Pharmaceutical Co., Ltd., priority 2021, published 2024)
